The source of these data is patent US8906694B2, “Organometallic fluorescent sensors for nitric oxide detection and imaging” (The Florida International University Board of Trustees, priority 2012, dated 2014).

A short description of data set [1]: Fluorescence spectroscopy NO sensing in solution after addition of NO donor MAHMA-NONOate. The conditions noted are these: NO donor MAHMA-NONOate in buffer solution; aerobic and anaerobic conditions for the THF complex. The protocol: A pilot Re(I)-phenanthroline complex: Re(phen)(CO)2(THF)(CF3SO3) complex was synthesized from Re(phen)(CO)3(CF3SO3) (Scheme 3) by photochemical substitution of a CO with THF in situ and was tested for NO sensing by fluorescence spectroscopy after the addition of the NO donor: MAHMA-NONOate (Cayman Pharmaceuticals) at the are 10 μM-200 μM range (FIGS. 1 and 2). […] It is worth mentioning the dye is highly sensitive to NO, since it is only used at a concentration of only 10 μM, and responds to concentrations of NO donor in the μM level as well (FIG. 5). […] Furthermore live cell experiments with Re(phen)(CO)2(THF)(CF3SO3) prepared by thermal substitution gave similar results.
A stepwise experimental protocol for preparation and testing of the Rhenium organometallic sensor and comparison with existing technology is as follows: • 1) Preparation of a stock solution of a 2.0 mM NO donor solution by dissolving 0.6 mg of (Z)-1-[N-Methyl-N-[6-(N-methylammoniohexyl)amino]]diazen-1-ium-1,2-diolate (Methylamine hexamethylene methylamine NONOate or MAHMA NONOate) in 0.01 M NaOH. Solution is kept at 4° C. until use. • 2) Preparation of a 1.0 mM stock solution of probe LRe(CO)3(OSO2CF3) in DMSO or THF (L is phen or substituted analog). For the Re probe the solution is undergoing the following steps: […]

Data set [2] relates to Rat Aortic Endothelial Cells. In words: Fluorescence microscopy NO imaging in living cells with NO donor addition. It is filed as cell-based. Particulars: for absorptivity of the dye into the cells: living cells, fluorescence microscopy. An excerpt: Rat Aortic Endothelial Cells acquired from Cell Biologics were used for the cell based experiments. Fetal Bovine Serum (FBS) and DMSO were bought from ATCC. Penicillin-Streptomycin and endothelial cell growth supplement from bovine neural tissue were bought from Sigma Aldrich. DMEM/F-12 medium, PBS and Trypsin (0.05% EDTA) were bought from Invitrogen. Cell culture flasks and dishes were bought from Fisher Scientific. MAHMA/NO was bought from Cayman Chemicals.
Cell culture: Rat Aortic Endothelial Cells were grown (passage 4-10) in DMEM/F-12 medium supplemented with 10% FBS, 1% penicillin-streptomycin, and endothelial cell growth supplement in a humidified tissue culture incubator at 37° C. equilibrated with 95% air/5% CO2. For experimentation, cells were cultured in 35×10 mm dishes seeded with 2×10^5 cells and used at 60-80% confluency.
After the loading phase with the organometallic Re-complex (10 μM for 45 min) cells were rinsed off excess dye using PBS buffer solution. This was followed by an exposure to 10 μM MAHMA/NO for 10-15 minutes. Images were then acquired with a fluorescence microscope (Olympus IX 81 fitted with a CCD camera (Qimaging) at 350 nm (excitation) and 450 nm (emission) with 20× zoom, with exposition time of 2668 ms. The data were analyzed with IPLAB software (BioVision Technologies).
Conditions of incubator: 37° C., 21% O2, 5% CO2, with cell culture harvested and plated for at least 24 hours.
[…] of Re(phen)(THF)(CO)2(CF3SO3) or Re(phen)(CO)2(PPh3)(CF3SO3) (1.6×10^−3 M) was prepared in THF. 62.5 μL of this solution was added to 138 μL of acetone. This new solution was added to 800 μL of 10 mM PBS (Phosphate Buffer Saline) buffer solution, resulting in v/v ratios of 6% THF, 14% acetone, and 80% Buffer. This new solution was further diluted 1/10 with PBS Buffer before added to the cells, resulting to final solvent composition of 0.6% THF, 1.4% acetone, and 98% v/v aqueous buffer. This final solution contains the organometallic Re dye at 10 μM concentration, (solution A) before contact with NO donor solutions.
A blank (0 μM NO donor: MAHMA NONOate) and 3 stock solutions (100 μM, 500 μM, 1 mM) MAHMA NONOate were prepared in NaOH 0.01M, which after addition to the media result to final NO donor concentrations of 0 μM, 1 μM, 5 μM, 10 μM.
The old media were poured out from the plates. The plates were rinsed 2 times with 1 mL PBS 10 mM. The next reagents were added to each plate in the following order: […] of DMEM/FBS/Penicillin Media, […] of PBS 10 mM, and 100 μL of Re complex stock in 20% organic mixture. The plates were incubated for 75 minutes.
The reactive media was poured out from the plate. The plates were rinsed 2 times with 1 mL PBS 10 mM. […]

On to `C1CCOC1.O=[C]=[Re]1(=[C]=O)([O]S(=O)(=O)C(F)(F)F)[N]2C=CC=c3ccc4c(c32)[N]1C=CC=4` [Re(phen)(CO)2(THF)(CF3SO3)], for which the “fluorescent response to NO donor addition in solution” value in data set [1] is reported as “responds directly to NO”. Further, the “absorptivity of the dye into the cells” value in data set [2] (dye 10 μM) is on record as “good absorptivity”. Further, the “fluorescence response to NO donor addition in living cells” value in data set [2] (dye 10 μM, MAHMA-NONOate 0-10 μM, λexc=350 nm, λem=450 nm) is given as “direct response”.
On to `O=[C]=[Re]1(=[C]=O)([O]S(=O)(=O)C(F)(F)F)([PH](c2ccccc2)(c2ccccc2)c2ccccc2)[N]2C=CC=c3ccc4c(c32)[N]1C=CC=4` [Re(phen)(CO)2(PPh3)(CF3SO3)], for which the “fluorescent response to NO donor addition in solution” value in data set [1] is given as “shows response to NO addition”. Further, the “toxicity to the cells” value in data set [2] (at the 10 μM level) is “no toxicity”. Also, the “absorptivity of the dye into the cells” value in data set [2] (dye 10 μM) is “good dye absorptivity into cells”.
